This is an account of results in ChEMBL document CHEMBL5046259, “Cannabinoids Block Cellular Entry of SARS-CoV-2 and the Emerging Variants” (J Nat Prod, 2022).

The structures appear in SMILES notation. ≈ marks a conversion by molar mass, not a printed value. Calls of active or inactive are those of the source. The calls are words filed in the database; no cut-off is given here.

Data set [1] has as its system SARS-CoV-2. As to the kind of experiment: Antiviral activity against SARS-CoV-2 infected in African green monkey Vero E6 cells assessed as inhibition of viral entry at 25 ug/ml measured after 24 hrs post infection by fluorescence microscopy. The format is functional, organism-based. As to conditions: Severe acute respiratory syndrome coronavirus 2, dose 25.0 µg/ml.

The subject of data set [2] is SARS-CoV-2. Kind of data set: Antiviral activity against SARS-CoV-2 isolate USA-WA1/2020 strain infected in African green monkey Vero E6 cells assessed as inhibition of viral entry incubated for 1 hr prior to infection and measured after 48 hrs by Focus forming assay. Type of data set: functional, organism-based. The conditions noted are these: Severe acute respiratory syndrome coronavirus 2, USA-WA1/2020, Vero C1008.

For the next data set, the system named is Vero C1008. Kind of data set: Cytotoxicity against African green monkey Vero E6 cells by resazurin assay. The format is toxicity, cell-based. The conditions noted are these: chlorocebus sabaeus. A general note: Resazurin is reduced to fluorescent resorufin, in cell work by metabolically active cells.
Another data set concerns Caco-2. Kind of data set: Cytotoxicity against human Caco-2 cells by resazurin assay. The format is toxicity, cell-based.
A further data set deals with HEK-293T. As to the kind of experiment: Cytotoxicity against human HEK293T cells overexpressing ACE2 by resazurin assay. The format is toxicity, cell-based.

With `C=C(C)[C@@H]1CCC(C)=C[C@H]1c1c(O)cc(CCCCC)c(C(=O)O)c1O` [CANNABIDIOLIC ACID], in the data set with SARS-CoV-2 [1], the outcome was Active. For the same compound, the IC50 in the data set on SARS-CoV-2 [2] was determined as 24 µg/mL (≈ 66.9 µM). The Activity result in the data set on Vero C1008, in the data set on Caco-2 and with HEK-293T was “Non-Toxic” in each case.
With `CCCCCc1cc(O)c(C/C=C(\C)CCC=C(C)C)c(O)c1C(=O)O` [CANNABIGEROLIC ACID], the result with SARS-CoV-2 [1] was Active. In the data set on SARS-CoV-2 [2], the IC50 came to 37 µg/mL (≈ 103 µM). The Activity result in the data set on Vero C1008, with Caco-2 and with HEK-293T was “Non-Toxic” throughout.

By IC50 is commonly meant the point on the concentration scale where inhibition reaches its midpoint.
